Measured values from patent EP1247803A2, “Indolinone compounds suitable for modulation of protein kinases” (Sugen, Inc., priority 1996, dated 1998).

What follows are compounds tested against T1, FLK-1 receptor (Mus musculus, UniProt P35918) (assay: FLK-1 ELISA (kinase activity of the FLK-1 receptor in FLK-1/NIH3T3 cells, VEGF stimulated)).
T1 construct: expressed in transfected cells; host or cells: NIH3T3 C7#3
Type: cell-based
Procedure, shortened: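 NIH3T3 C7#3 cells expressing FLK-1 were seeded at 25.000 cells/well, serum-starved overnight in 0.1% FBS, then treated with compound for two hours at 37°C (final DMSO 0.5%) before VEGF stimulation. Receptor was captured on anti-rabbit IgG-coated ELISA plates bearing affinity-purified anti-FLK-1 antiserum.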

T1 sequence (P35918 20-1345): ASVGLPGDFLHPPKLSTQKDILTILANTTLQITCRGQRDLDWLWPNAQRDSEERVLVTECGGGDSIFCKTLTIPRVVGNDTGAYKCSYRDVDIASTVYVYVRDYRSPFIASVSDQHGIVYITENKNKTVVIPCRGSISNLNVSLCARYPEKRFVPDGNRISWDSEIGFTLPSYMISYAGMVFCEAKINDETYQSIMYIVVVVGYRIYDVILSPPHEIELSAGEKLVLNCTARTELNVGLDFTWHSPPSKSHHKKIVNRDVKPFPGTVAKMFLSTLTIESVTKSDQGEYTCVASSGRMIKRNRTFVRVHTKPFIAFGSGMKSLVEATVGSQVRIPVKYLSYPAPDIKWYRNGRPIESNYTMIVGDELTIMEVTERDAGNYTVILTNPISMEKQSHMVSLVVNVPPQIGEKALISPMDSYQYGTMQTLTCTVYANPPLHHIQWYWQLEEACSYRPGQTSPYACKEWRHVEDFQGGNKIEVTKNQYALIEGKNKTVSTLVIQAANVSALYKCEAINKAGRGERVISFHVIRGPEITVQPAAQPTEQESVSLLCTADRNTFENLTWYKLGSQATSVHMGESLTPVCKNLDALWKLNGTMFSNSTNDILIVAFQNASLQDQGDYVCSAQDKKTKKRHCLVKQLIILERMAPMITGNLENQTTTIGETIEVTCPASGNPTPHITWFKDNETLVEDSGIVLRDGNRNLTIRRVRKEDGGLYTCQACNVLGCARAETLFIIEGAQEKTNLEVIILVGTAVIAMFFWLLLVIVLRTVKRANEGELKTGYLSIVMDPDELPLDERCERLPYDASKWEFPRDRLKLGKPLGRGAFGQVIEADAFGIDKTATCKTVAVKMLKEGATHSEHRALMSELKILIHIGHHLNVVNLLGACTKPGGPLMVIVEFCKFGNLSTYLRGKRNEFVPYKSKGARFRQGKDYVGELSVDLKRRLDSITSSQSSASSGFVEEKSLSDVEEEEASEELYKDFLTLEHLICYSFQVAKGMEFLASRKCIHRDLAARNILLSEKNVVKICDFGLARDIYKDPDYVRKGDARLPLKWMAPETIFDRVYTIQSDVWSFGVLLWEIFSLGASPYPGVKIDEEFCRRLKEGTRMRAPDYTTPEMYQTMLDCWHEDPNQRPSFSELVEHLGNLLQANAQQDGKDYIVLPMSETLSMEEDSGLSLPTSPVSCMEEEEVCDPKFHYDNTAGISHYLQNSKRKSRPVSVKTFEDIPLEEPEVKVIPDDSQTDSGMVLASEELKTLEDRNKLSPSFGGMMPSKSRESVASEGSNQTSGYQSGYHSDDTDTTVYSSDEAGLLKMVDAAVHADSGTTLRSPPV

First: Cc1cc(C)c(C=C2C(=O)Nc3ccc(I)cc32)[nH]1 [10721/B08]
Second: CNS(=O)(=O)c1ccc2c(c1)C(=Cc1[nH]c(C)cc1C)C(=O)N2 [10721/D08]
The “Fik Kinase %Inhibition” value of the first is higher: 18.5% for the first, 3.9% for the second.

First: CCOc1ccccc1C=C1C(=O)Nc2c(Br)cc(Br)cc21 [10717/A02]
Second: Cn1c(C=C2C(=O)Nc3c(Br)cc(Br)cc32)nc2ccccc21 [10721/A02]
The “Fik Kinase %Inhibition” value of the first is lower: 0.1% for the first, 10.6% for the second.

Compared with `Cn1cc(Cl)c(C=C2C(=O)Nc3c(Br)cc(Br)cc32)n1` [10721/A03], `O=C1Nc2c(Br)cc(Br)cc2C1=Cc1ccc(Cl)s1` [10721/A07] is lower in “Fik Kinase %Inhibition” value: 11.4% for the first, -4.7% for the second.

Compared with `COc1cc(O)ccc1C=C1C(=O)Nc2ccc(S(=O)(=O)N3CCOCC3)cc21` [10720/F03], `COc1ccc(O)c(C=C2C(=O)Nc3ccc(S(=O)(=O)N4CCOCC4)cc32)c1` [10720/F10] is lower in “Fik Kinase %Inhibition” value: 10.6% for the first, -2.6% for the second.

Compared with `CNS(=O)(=O)c1ccc2c(c1)C(=Cc1nc3ccccc3n1C)C(=O)N2` [10721/D02], `CNS(=O)(=O)c1ccc2c(c1)C(=Cc1ccccc1)C(=O)N2` [10720/D06] is lower in “Fik Kinase %Inhibition” value: 15.1% for the first, 10.1% for the second.

Compared with `CC(C)(C)c1cc(C=C2C(=O)Nc3c(Br)cc(Br)cc32)cc(Br)c1O` [10721/A10], `CC(C)(C)c1cc(C=C2C(=O)Nc3c(Br)cc(Br)cc32)cc(C(C)(C)C)c1O` [10721/A11] is lower in “Fik Kinase %Inhibition” value: 5.2% for the first, 4.8% for the second.

Going from `Cc1c(Br)ccc2c1C(=Cc1cccn1C)C(=O)N2` [10717/C04] to `Cc1c(Br)ccc2c1C(=Cc1ccc[nH]1)C(=O)N2` [10717/C09], the “Fik Kinase %Inhibition” value rises from -0.8% to 77.1%.

Going from `CNS(=O)(=O)c1ccc2c(c1)C(=Cc1ccc(Cl)s1)C(=O)N2` [10721/D07] to `CNS(=O)(=O)c1ccc2c(c1)C(=Cc1ccc(SC)s1)C(=O)N2` [10720/D07], the “Fik Kinase %Inhibition” value rises from 6.4% to 11.8%.

Compared with `O=C1Nc2ccc(S(=O)(=O)N3CCOCC3)cc2C1=Cc1ccccc1O` [10720/F05], `O=C1Nc2ccc(S(=O)(=O)N3CCOCC3)cc2C1=Cc1ccccc1` [10720/F06] is higher in “Fik Kinase %Inhibition” value: -3.6% for the first, 11.9% for the second.

Compared with `O=C1Nc2ccc(CCCl)cc2C1=Cc1ccccc1O` [10720/G05], `O=C1Nc2ccc(CCCl)cc2C1=Cc1ccccc1` [10720/G06] is lower in “Fik Kinase %Inhibition” value: -2.9% for the first, -3.4% for the second.

First: CCOc1cc(C=C2C(=O)Nc3ccc(S(=O)(=O)NC)cc32)ccc1O [10720/D09]
Second: CNS(=O)(=O)c1ccc2c(c1)C(=Cc1ccc(O)c(C(C)(C)C)c1)C(=O)N2 [10721/D09]
The “Fik Kinase %Inhibition” value of the first is lower: 5.8% for the first, 17.6% for the second.

First: COc1cc(O)ccc1C=C1C(=O)Nc2ccc(S(=O)(=O)Nc3ccc(C(F)(F)F)cc3)cc21 [10720/E03]
Second: COc1ccc(O)c(C=C2C(=O)Nc3ccc(S(=O)(=O)Nc4ccc(C(F)(F)F)cc4)cc32)c1 [10720/E10]
The “Fik Kinase %Inhibition” value of the first is higher: 34.3% for the first, -4.1% for the second.

Going from `CNS(=O)(=O)c1ccc2c(c1)C(=Cc1ccc(OC)c(OC)c1)C(=O)N2` [10720/D04] to `COc1ccc(C=C2C(=O)Nc3ccc(S(=O)(=O)N4CCOCC4)cc32)cc1OC` [10720/F04], the “Fik Kinase %Inhibition” value falls from 15.6% to 10.6%.

Compared with `O=C1Nc2ccc(S(=O)(=O)Nc3ccc(C(F)(F)F)cc3)cc2C1=Cc1ccccc1` [10720/E06], `O=C1Nc2ccc(S(=O)(=O)Nc3ccc(C(F)(F)F)cc3)cc2C1=Cc1ccccc1O` [10720/E05] is lower in “Fik Kinase %Inhibition” value: 25.5% for the first, -13.8% for the second.

First: CNS(=O)(=O)c1ccc2c(c1)C(=Cc1nn(C)cc1Cl)C(=O)N2 [10721/D03]
Second: CNS(=O)(=O)c1ccc2c(c1)C(=Cc1cc(C)c(C)s1)C(=O)N2 [10721/D04]
The “Fik Kinase %Inhibition” value of the first is higher: 17.8% for the first, 15.2% for the second.

Going from `O=C1Nc2c(Br)cc(Br)cc2C1=Cc1cc([N+](=O)[O-])cc(CCl)c1O` [10721/A06] to `Cc1c(Br)ccc2c1C(=Cc1cc([N+](=O)[O-])cc(CCl)c1O)C(=O)N2` [10721/C06], the “Fik Kinase %Inhibition” value rises from 6.4% to 14.4%.

Compared with `Cc1[nH]c(C=C2C(=O)Nc3ccc(Br)c(C)c32)c(Br)c1Br` [10717/C11], `Cc1cc(C)c(C=C2C(=O)Nc3ccc(Br)c(C)c32)[nH]1` [10721/C08] is higher in “Fik Kinase %Inhibition” value: 4.6% for the first, 55.8% for the second.

Compared with `Cc1c(Br)ccc2c1C(=Cc1ccc(Br)cc1)C(=O)N2` [10717/C08], `Cc1c(Br)ccc2c1C(=Cc1ccc(F)cc1)C(=O)N2` [10717/C05] is lower in “Fik Kinase %Inhibition” value: 7.0% for the first, -2.3% for the second.

Compared with `O=C1Nc2c(Br)cc(Br)cc2C1=Cc1cc2c([nH]1)CCCC2` [10721/A05], `Cc1c(Br)ccc2c1C(=Cc1cc3c([nH]1)CCCC3)C(=O)N2` [10721/C05] is higher in “Fik Kinase %Inhibition” value: 12.5% for the first, 56.4% for the second.

First: COc1cccc(O)c1C=C1C(=O)Nc2ccc(Br)c(C)c21 [10717/C10]
Second: Cc1c(Br)ccc2c1C(=Cc1ccc(O)c(C(C)(C)C)c1)C(=O)N2 [10721/C09]
The “Fik Kinase %Inhibition” value of the first is lower: -8.0% for the first, 17.5% for the second.

Going from `CSc1ccc(C=C2C(=O)Nc3ccc(CCCl)cc32)s1` [10720/G07] to `COc1ccc(O)c(C=C2C(=O)Nc3ccc(CCCl)cc32)c1` [10720/G10], the “Fik Kinase %Inhibition” value falls from 5.1% to -36.6%.

First: Cc1cc(C=C2C(=O)Nc3c(Br)cc(Br)cc32)sc1C [10721/A04]
Second: Cc1cc(C)c(C=C2C(=O)Nc3c(Br)cc(Br)cc32)[nH]1 [10721/A08]
The “Fik Kinase %Inhibition” value of the first is higher: 6.5% for the first, 4.8% for the second.

Compared with `CNS(=O)(=O)c1ccc2c(c1)C(=Cc1cc(OC)ccc1O)C(=O)N2` [10720/D10], `CNS(=O)(=O)c1ccc2c(c1)C(=Cc1ccccc1O)C(=O)N2` [10720/D05] is higher in “Fik Kinase %Inhibition” value: -6.6% for the first, 4.8% for the second.

Going from `O=C1Nc2ccc(S(=O)(=O)N3CCOCC3)cc2C1=Cc1ncc[nH]1` [10720/F11] to `CSc1ccc(C=C2C(=O)Nc3ccc(S(=O)(=O)N4CCOCC4)cc32)s1` [10720/F07], the “Fik Kinase %Inhibition” value falls from 5.0% to 4.6%.

First: CSc1ccc(C=C2C(=O)Nc3ccc(S(=O)(=O)Nc4ccc(C(F)(F)F)cc4)cc32)s1 [10720/E07]
Second: O=C1Nc2ccc(S(=O)(=O)Nc3ccc(C(F)(F)F)cc3)cc2C1=Cc1ncc[nH]1 [10720/E11]
The “Fik Kinase %Inhibition” value of the first is higher: 18.8% for the first, 9.3% for the second.

Compared with `Cc1c(Br)ccc2c1C(=Cc1ccc(Cl)s1)C(=O)N2` [10721/C07], `Cc1ccc(C=C2C(=O)Nc3ccc(Br)c(C)c32)s1` [10717/C07] is lower in “Fik Kinase %Inhibition” value: 10.9% for the first, 1.6% for the second.

Going from `CC(C)(C)c1cc(C=C2C(=O)Nc3ccc(I)cc32)cc(C(C)(C)C)c1O` [10721/B11] to `CC(C)(C)c1cc(C=C2C(=O)Nc3ccc(I)cc32)cc(Br)c1O` [10721/B10], the “Fik Kinase %Inhibition” value rises from -2.1% to 20.9%.

First: O=C1Nc2ccc(I)cc2C1=Cc1cc2c([nH]1)CCCC2 [10721/B05]
Second: CNS(=O)(=O)c1ccc2c(c1)C(=Cc1cc3c([nH]1)CCCC3)C(=O)N2 [10721/D05]
The “Fik Kinase %Inhibition” value of the first is higher: 45.9% for the first, -25.1% for the second.

Compared with `CC(C)(C)c1cc(C=C2C(=O)Nc3c(Br)cc(Br)cc32)ccc1O` [10721/A09], `CC(C)(C)c1cc(C=C2C(=O)Nc3ccc(I)cc32)ccc1O` [10721/B09] is lower in “Fik Kinase %Inhibition” value: 10.9% for the first, 9.0% for the second.

Compared with `COc1cc(O)ccc1C=C1C(=O)Nc2ccc(CCCl)cc21` [10720/G03], `COc1ccc(C=C2C(=O)Nc3ccc(CCCl)cc32)cc1OC` [10720/G04] is lower in “Fik Kinase %Inhibition” value: 2.6% for the first, 2.4% for the second.

Going from `O=C1Nc2ccc(S(=O)(=O)N3CCOCC3)cc2C1=Cc1c(F)cc(F)cc1F` [10720/F02] to `Cc1cc(O)cc(O)c1C=C1C(=O)Nc2ccc(S(=O)(=O)N3CCOCC3)cc21` [10720/F08], the “Fik Kinase %Inhibition” value falls from 9.1% to -4.1%.

Compared with `O=C1Nc2ccc(CCCl)cc2C1=Cc1c(F)cc(F)cc1F` [10720/G02], `Cc1cc(O)cc(O)c1C=C1C(=O)Nc2ccc(CCCl)cc21` [10720/G08] is lower in “Fik Kinase %Inhibition” value: 5.0% for the first, -17.9% for the second.

First: CNS(=O)(=O)c1ccc2c(c1)C(=Cc1ncc[nH]1)C(=O)N2 [10720/D11]
Second: O=C1Nc2ccc(CCCl)cc2C1=Cc1ncc[nH]1 [10720/G11]
The “Fik Kinase %Inhibition” value of the first is higher: 9.8% for the first, -18.0% for the second.

First: Cc1c(Br)ccc2c1C(=Cc1nn(C)cc1Cl)C(=O)N2 [10721/C03]
Second: Cc1cc(C=C2C(=O)Nc3ccc(Br)c(C)c32)sc1C [10721/C04]
The “Fik Kinase %Inhibition” value of the first is lower: 16.5% for the first, 21.8% for the second.

First: O=C1Nc2ccc(S(=O)(=O)Nc3ccc(C(F)(F)F)cc3)cc2C1=Cc1c(F)cc(F)cc1F [10720/E02]
Second: Cc1cc(O)cc(O)c1C=C1C(=O)Nc2ccc(S(=O)(=O)Nc3ccc(C(F)(F)F)cc3)cc21 [10720/E08]
The “Fik Kinase %Inhibition” value of the first is higher: 5.7% for the first, 2.5% for the second.

Going from `CNS(=O)(=O)c1ccc2c(c1)C(=Cc1c(C)cc(O)cc1O)C(=O)N2` [10720/D08] to `CNS(=O)(=O)c1ccc2c(c1)C(=Cc1cc([N+](=O)[O-])cc(CCl)c1O)C(=O)N2` [10721/D06], the “Fik Kinase %Inhibition” value falls from 3.3% to 1.6%.

First: COc1ccc(C=C2C(=O)Nc3ccc(S(=O)(=O)Nc4ccc(C(F)(F)F)cc4)cc32)cc1OC [10720/E04]
Second: CCOc1cc(C=C2C(=O)Nc3ccc(S(=O)(=O)Nc4ccc(C(F)(F)F)cc4)cc32)ccc1O [10720/E09]
The “Fik Kinase %Inhibition” value of the first is higher: 18.4% for the first, 11.5% for the second.

First: Cc1c(Br)ccc2c1C(=Cc1cc(Br)c(O)c(C(C)(C)C)c1)C(=O)N2 [10721/C10]
Second: Cc1c(Br)ccc2c1C(=Cc1cc(C(C)(C)C)c(O)c(C(C)(C)C)c1)C(=O)N2 [10721/C11]
The “Fik Kinase %Inhibition” value of the first is higher: 21.1% for the first, 13.9% for the second.

First: CCOc1cc(C=C2C(=O)Nc3ccc(CCCl)cc32)ccc1O [10720/G09]
Second: CCOc1cc(C=C2C(=O)Nc3ccc(S(=O)(=O)N4CCOCC4)cc32)ccc1O [10720/F09]
The “Fik Kinase %Inhibition” value of the first is lower: 2.1% for the first, 5.9% for the second.

Compared with `Cc1c(Br)ccc2c1C(=Cc1c[nH]c3ccccc13)C(=O)N2` [10717/C06], `Cc1c(Br)ccc2c1C(=Cc1nc3ccccc3n1C)C(=O)N2` [10721/C02] is higher in “Fik Kinase %Inhibition” value: 7.6% for the first, 9.7% for the second.
